{"source": "patent US20100317736A1", "about": "“COMPOSITION OF THE SKIN EXTERNAL APPLICATION OR THE FOOD FOR ACCELERATING PROLINE RECYCLING BY CONTAINING THEANINE” (priority 2007, published 2010)", "key": {"[1]": {"tested_on": "female hairless mice (SKH, HR-1)", "assay": "Inhibition of photoaging in hairless mouse, oral administration, replica / SkinVisiometer", "format": "in vivo", "details": "500 mg theanine per kg oral, 5 weeks, UV total 600 mJ/cm^2, versus Comparative Example 3, FIG. 7", "excerpt": "In order to examine the effect of orally administered theanine on photoaging, hairless mice were used as animal models for this experiment. As described in Table 2, 6 to 7 week old female hairless mice (SKH, HR-1) were divided into 3 groups of Comparative Example 2 (normal group), Comparative Example 3 (UV control group) and Example 2 (UV/theanine treatment group), each group having 8 mice and were raised for the experiment period.\nThe mice of Comparative Example 2 and Comparative Example 3 were orally administered with 0.5 ml of saline and the mice of Example 2 were administered with 500 mg of theanine, based on the solid faction, per kg of body weight dissolved in 0.5 ml of saline using a syringe for liquid injection. The administration was continued for total 5 weeks and performed at the predetermined time for 5 days per week. From 2 weeks through 5 weeks after the administration had started, the groups of Comparative Example 3 and Example 2 were irradiated by UV under conditions similar to solar light three times per week. Here, the total UV irradiation for the experiment period was set to 600 mJ/cm^2. In order to objectively judge the effect of improving wrinkle, a replica was taken from the back of each hairless mouse prior to an autopsy. The skin surface was imaged using SkinVisiometer to compare and rates the degree of the skin wrinkles."}, "[2]": {"tested_on": "SKH-1 female hairless mice", "assay": "Collagen biosynthesis in hairless mice, closed patch test, western blotting", "format": "in vivo", "details": "cream of Example 1 (theanine 1) on back skin, closed patch test 2 weeks, versus Comparative Example 1, FIG. 5", "excerpt": "In order to examine the effect of improving skin wrinkle of theanine, SKH-1 female hairless mice, about 7 weeks old, were subjected to a closed patch test for 2 weeks. Each cream of Example 1 and Comparative Example 1 was applied on the back skin of the hairless mouse and after the closed patch test, the skin was biopsed. Proteins were separated from the biopsed skin and assessed for collagen by western blotting."}, "[3]": {"tested_on": "female hairless mice (SKH, HR-1)", "assay": "H&E staining, thickness of the epidermal layer", "format": "in vivo", "details": "for Thickness of epidermal layer: 500 mg theanine per kg oral, 5 weeks, UV", "method": "In addition, the H&E (heamatoxylin & eosin) staining assay was performed for observation of general tissue condition and measurement of thickness of the epidermal layer. The thickness of the epidermal layer was measured at 10 different spots randomly selected per tissue by observing the H&E stained slide under the microscope with 100× magnification and the average value was shown in Table 3."}, "prolidase": {"tested_on": "prolidase", "assay": "Prolidase activity in dermal cells (Chinard reaction, Gly-Pro substrate)", "format": "cell-based, human", "details": "0.01, 0.1, 1, 2 or 10 mM theanine, 24 hours, versus untreated control, FIG. 3", "method": "10^5 of human fibroblasts were cultured in 6 well plates for 6 days. The medium was replaced with heat-inactivated fetal bovine serum and then incubated for an additional 24 hours. The medium was again replaced with a culture medium containing either 0.01, 0.1, 1, 2 or 10 mM of theanine. After 24 hours, the cells were harvested and subjected to the Chinard reaction. The cells were ultrasonically disrupted and centrifuged at 100,000×g for 15 minutes. The supernatant was collected and mixed with 2 mM MnCl2 in the same amount for the prolidase reaction. The mixture was pre-reacted at 37° C. for 24 hours. 94 mM glycine-proline (Gly-Pro) dipeptide as a substrate of the prolidase reaction was added thereto in the same amount of the pre-reacted mixture and reacted at 37° C. for 1 hours. Then, the reaction was ended by adding 0.45M TCA. The enzymatic activity of prolidase was determined by quantifying proline, which is isolated by prolidase, by the color development using ninhydrin reagent. The enzyme activity was shown as a value calculating the equation of amount of isolated proline over protein weight over time (Mol/min/mg) and the result is shown in FIG. 3."}, "type 1 collagen": {"tested_on": "type 1 collagen", "assay": "Immunohistochemistry of type 1 collagen in skin tissue", "format": "in vivo, mice", "details": "500 mg theanine per kg oral, 5 weeks, UV, versus Comparative Example 3, FIG. 8", "method": "This example was performed using the hairless mice of Example 2 and Comparative Example 2 to 3, which had been used in Experiment Example 6 and histopathological observation was performed by immunohistochemistry. The skin on the back of the hairless mice was taken, fixed in 10% neutral formalin and subjected to immunohistochemistry using monoclonal IgG1 antibody to examine the expression of type 1 collagen in the skin tissue."}, "Human fibroblasts [4]": {"tested_on": "Human fibroblasts", "assay": "Procollagen biosynthesis in dermal cells (ELISA)", "format": "cell-based", "details": "48 hours, FIG. 1", "method": "Human fibroblasts are cultured in the concentration of 10^4 in 48 well plates. The medium of the plates was replaced with a culture medium containing either 10 μM of vitamin C or 10 μM of transforming growth factor-β (TGF-β) and a culture medium containing either 0.1, 1, 10 or 100 μM of theanine. After culturing for 48 hours, the supernatants were harvested and synthesized procollagen was quantified using the ELISA (Takara MK101) method. The data were calculated relative to 100 of control group without containing the above substances and the result was shown in FIG. 1."}, "Human fibroblasts [5]": {"tested_on": "Human fibroblasts", "assay": "Total collagen biosynthesis in dermal cells (L-[3H]-proline incorporation)", "format": "cell-based", "details": "1 mM theanine, 24 hours, relative to 100 of control group, FIG. 4", "method": "5×10^4 of human fibroblasts were cultured in 24 well plates. The medium was replaced with a medium containing 164 kBq/ml L-[^3H]-proline and supplemented with theanine in a concentration either 0.01, 0.1, 1 or 10 mM. After incubation of 24 hours, the cells were harvested, disrupted and treated with collagenase to separate collagen. Then, the amount of ^3H increased by the treatment with theanine was determined using a liquid scintillation counter and compared to that of the control group which had not been treated with theanine. Without regard to the collagen type, the total collagen amount was measured and the data described in FIG. 4 are calculated relative to 100 of the control group. As a result, it was confirmed that the total collagen biosynthesis was increased by about 45% when treated with 1 mM of theanine."}, "Human fibroblasts [6]": {"tested_on": "Human fibroblasts", "assay": "Cell viability (MTT)", "format": "cell-based", "details": "1, 10, 100, 1000 and 10000 μM theanine, 24 hours, FIG. 2", "method": "2×10^3 of human fibroblasts were cultured in a 96 well plate, treated with 1, 10, 100, 1000 and 10000 μM of theanine and incubated for 24 hours. 3-(4,5-dimethylazol-2-yl)-2,5-diphenyl-2H-tetraazoliumbromide (MTT) was added to the concentration of 0.5 mg/ml and further incubated for 4 hours."}}}
{"smiles": "CCNC(=O)CC[C@H](N)C(=O)O", "note": "[theanine]", "values": [{"measurement": "density and depth of the wrinkles on the skin surface", "setting": "[1]", "value": "alleviated as compared to those of Comparative Example 3"}, {"measurement": "collagen biosynthesis in skin (western blotting)", "setting": "[2]", "value": "increased the collagen biosynthesis in the hairless mice"}, {"measurement": "Thickness of epidermal layer", "setting": "[3]", "value": 77.4, "unit": "%"}, {"measurement": "Thickness of epidermal layer", "setting": "[3]; average of 10 spots per tissue, the values are: epidermal thickness", "value": "7.56 ± 0.75", "unit": "µm"}, {"measurement": "decrease in the thickness of the epidermal layer", "setting": "[3]; compared to the UV control group (Comparative Example 3)", "value": "about 23%"}, {"measurement": "prolidase activity (amount of isolated proline)", "setting": "prolidase", "value": "concentration-dependently increased"}, {"measurement": "type 1 collagen staining in skin tissue", "setting": "type 1 collagen", "value": "more collagen was stained in the epidermal and dermal junction"}, {"measurement": "procollagen production", "setting": "Human fibroblasts [4]; 0.1, 1, 10 or 100 μM theanine, relative to 100 of control group", "value": "increased collagen production of fibroblast concentration-dependently"}, {"measurement": "procollagen production compared with positive controls", "setting": "Human fibroblasts [4]; versus 10 μM vitamin C or 10 μM TGF-β", "value": "higher procollagen production than the positive control groups"}, {"measurement": "increase of total collagen biosynthesis", "setting": "Human fibroblasts [5]", "value": "about 45%"}, {"measurement": "cell viability / toxicity (MTT)", "setting": "Human fibroblasts [6]", "value": "not toxic at all"}]}
